{"source": "patent US8178516B2", "about": "“Compositions and method for treatment of chronic inflammatory diseases” (Sylvan Labs, LLC, priority 1992, dated 2012)", "origin": "cited, not measured here", "key": {"myocardial glutathione": {"tested_on": "myocardial glutathione", "details": "subsequent to experimental ischemia and reperfusion"}, "[1]": {"tested_on": "plasma cysteine, plasma glutathione and red blood cell glutathione", "details": "in vivo"}}}
{"smiles": "CC(=O)N[C@@H](CS)C(=O)O", "note": "[N-acetylcysteine]", "values": [{"measurement": "increase in myocardial glutathione", "setting": "myocardial glutathione", "result": 100, "unit": "fold"}, {"measurement": "levels of plasma cysteine, plasma glutathione and red blood cell glutathione", "setting": "[1]", "result": "increase"}]}
